Test results reported in patent US20220002332A1, “SCUTELLARIN AMIDE DERIVATIVES, AND PREPARATION METHODS AND USES THEREOF” (HEILONGJIANG BAYI AGRICULTURAL UNIVERSITY, priority 2020, published 2022).

Tests used:
Type in all cases: cell-based
[1] = test system: human acute leukemia mononuclear macrophage cell line THP-1; assay: Cell inhibitory activity (CCK-8 anti-proliferative) on THP-1; conditions: THP-1 cells, 72 hours with drug, CCK-8, 450 nm
Method: (§1) Cell lines: human promyelocytic leukemia cell line HL-60, human acute leukemia mononuclear macrophage cell line THP-1, human liver cancer cell line HepG-2
(§2) Test Method for Cell Inhibitory Activity
(§3) Cells are routinely cultured in an incubator at 37° C. and 5% CO2 saturated humidity. The culture medium is RPMI1640 cell culture medium containing 10% of heat-inactivated fetal bovine serum, 100 U/mL of penicillin and 100 U/mL of streptomycin. The culture medium is replaced after 48 hours. After the cells adhere to the wall, they are digested with 0.25% trypsin and passage.
(§4) A vial of cells in the logarithmic growth phase and in good condition is digested with a digestion solution (0.125% trypsin+0.01% EDTA); cell count is 2 to 4×10^4 cell/mL; a cell suspension is made and inoculated on a 96-well plate, 100 μL/well, and cultured in a constant temperature CO2 incubator for 24 hours. The medium is replaced; the test drug is added, 100 μL/well, and cultured for 72 hours. CCK-8 is added to a 96-well plate, 50 μL/well, and incubated in an incubator for 4 hours. The supernatant is aspirated; DMSO is added, 200 μL/well, and shaken on a plate shaker for 10 minutes.

[2] = test system: human liver cancer cell line HepG-2; assay: Cell inhibitory activity (CCK-8 anti-proliferative) on HepG-2; conditions: HepG2, HepG-2 cells, 72 hours with drug, CCK-8, 450 nm
Method: as §1, §2, §3, §4

[3] = test system: human promyelocytic leukemia cell line HL-60; assay: Cell inhibitory activity (CCK-8 anti-proliferative) on HL-60; conditions: HL-60 cells, 72 hours with drug, CCK-8, 450 nm
Method: as §1, §2, §3, §4

Structure (SMILES) | IC50 [2] | IC50 [3] | IC50 [1]
O=C(Nc1ccccc1)C1OC(Oc2cc3oc(-c4ccc(OCc5ccccc5)cc4)cc(=O)c3c(O)c2OCc2ccccc2)C(O)C(O)C1O (stereo not drawn) [Example 5] | 45.7 ± 2.15 µM | 20 ± 0.19 µM | 35.37 ± 0.23 µM
O=C(Nc1ccc(Cl)cc1)C1OC(Oc2cc3oc(-c4ccc(OCc5ccccc5)cc4)cc(=O)c3c(O)c2OCc2ccccc2)C(O)C(O)C1O (stereo not drawn) [Example 6] | 51.6 ± 0.97 µM | 75.88 ± 0.31 µM | 81.36 ± 0.35 µM
O=C(Nc1ccc(O)cc1)C1OC(Oc2cc3oc(-c4ccc(OCc5ccccc5)cc4)cc(=O)c3c(O)c2OCc2ccccc2)C(O)C(O)C1O (stereo not drawn) [Example 12] | 36.1 ± 0.67 µM | 58.9 ± 0.97 µM | 33.9 ± 0.78 µM
COc1cccc(NC(=O)C2OC(Oc3cc4oc(-c5ccc(OCc6ccccc6)cc5)cc(=O)c4c(O)c3OCc3ccccc3)C(O)C(O)C2O)c1 (stereo not drawn) [Example 15] | 29.2 ± 0.77 µM | 4.28 ± 0.31 µM | 31.62 ± 0.25 µM
CC(C)NC(=O)C1OC(Oc2cc3oc(-c4ccc(OCc5ccccc5)cc4)cc(=O)c3c(O)c2OCc2ccccc2)C(O)C(O)C1O (stereo not drawn) [Example 17] | 39.5 ± 1.03 µM | 54.1 ± 1.21 µM | 37.3 ± 0.93 µM
CCCCCCNC(=O)C1OC(Oc2cc3oc(-c4ccc(OCc5ccccc5)cc4)cc(=O)c3c(O)c2OCc2ccccc2)C(O)C(O)C1O (stereo not drawn) [Example 18] | 46.2 ± 2.03 µM | 59.1 ± 0.91 µM | 35.8 ± 1.24 µM
COc1ccc(-c2cc(=O)c3c(O)c(OC)c(OC4OC(C(=O)Nc5ccc(C)cc5)C(O)C(O)C4O)cc3o2)cc1 (stereo not drawn) [Example 25] | 39.7 ± 2.31 µM | 61.7 ± 2.97 µM | 34.4 ± 1.89 µM
COc1ccc(-c2cc(=O)c3c(O)c(OC)c(OC4OC(C(=O)Nc5ccccc5O)C(O)C(O)C4O)cc3o2)cc1 (stereo not drawn) [Example 26] | 32.1 ± 2.03 µM | 15.4 ± 0.88 µM | 40.1 ± 1.57 µM
COc1ccc(-c2cc(=O)c3c(O)c(OC)c(OC4OC(C(=O)Nc5ccc(O)cc5)C(O)C(O)C4O)cc3o2)cc1 (stereo not drawn) [Example 27] | 51.2 ± 0.87 µM | 59.3 ± 2.18 µM | 89.03 ± 0.59 µM
COc1ccc(NC(=O)C2OC(Oc3cc4oc(-c5ccc(OC)cc5)cc(=O)c4c(O)c3OC)C(O)C(O)C2O)cc1 (stereo not drawn) [Example 28] | 39.5 ± 1.03 µM | 47.2 ± 2.71 µM | 53.8 ± 3.58 µM
COc1ccc(-c2cc(=O)c3c(O)c(OC)c(OC4OC(C(=O)Nc5ccccc5OC)C(O)C(O)C4O)cc3o2)cc1 (stereo not drawn) [Example 29] | 29 ± 2.26 µM | 53.2 ± 3.47 µM | 19.7 ± 0.89 µM
CCCNC(=O)C1OC(Oc2cc3oc(-c4ccc(OC)cc4)cc(=O)c3c(O)c2OC)C(O)C(O)C1O (stereo not drawn) [Example 31] | 33 ± 1.13 µM | 21.8 ± 0.99 µM | 41.6 ± 1.37 µM
O=C(O)[C@H]1O[C@@H](Oc2cc3oc(-c4ccc(O)cc4)cc(=O)c3c(O)c2O)[C@H](O)[C@@H](O)[C@@H]1O [Scutellarin] | 56.1 ± 1.23 µM | 22.7 ± 1.97 µM | 48.5 ± 2.21 µM

Stronger by IC50 [2], values ahead:

IC50 [2] | IC50 [3] | Structure (SMILES) | IC50 [1]
26.6 ± 2.19 µM | 28.2 ± 1.19 µM | COc1ccc(-c2cc(=O)c3c(O)c(OC)c(OC4OC(C(=O)NC(C)C)C(O)C(O)C4O)cc3o2)cc1 (stereo not drawn) [Example 32] | 19 ± 0.36 µM
24.3 ± 0.92 µM | 64.2 ± 3.41 µM | COc1ccc(-c2cc(=O)c3c(O)c(OC)c(OC4OC(C(=O)Nc5ccccc5C)C(O)C(O)C4O)cc3o2)cc1 (stereo not drawn) [Example 24] | 27.8 ± 1.12 µM
23.9 ± 0.88 µM | 20.9 ± 0.46 µM | COc1ccc(NC(=O)C2OC(Oc3cc4oc(-c5ccc(OCc6ccccc6)cc5)cc(=O)c4c(O)c3OCc3ccccc3)C(O)C(O)C2O)cc1 (stereo not drawn) [Example 13] | 26.3 ± 0.94 µM
21 ± 0.81 µM | 30.6 ± 0.57 µM | CCCNC(=O)C1OC(Oc2cc3oc(-c4ccc(OCc5ccccc5)cc4)cc(=O)c3c(O)c2OCc2ccccc2)C(O)C(O)C1O (stereo not drawn) [Example 16] | 22.4 ± 0.38 µM
19.4 ± 1.11 µM | 27.53 ± 0.15 µM | Cc1ccccc1NC(=O)C1OC(Oc2cc3oc(-c4ccc(OCc5ccccc5)cc4)cc(=O)c3c(O)c2OCc2ccccc2)C(O)C(O)C1O (stereo not drawn) [Example 9] | 26.8 ± 0.32 µM
17.6 ± 1.66 µM | 58.8 ± 2.31 µM | O=C(NC1CCCCC1)C1OC(Oc2cc3oc(-c4ccc(OCc5ccccc5)cc4)cc(=O)c3c(O)c2OCc2ccccc2)C(O)C(O)C1O (stereo not drawn) [Example 19] | 16.8 ± 0.19 µM
16.8 ± 0.19 µM | 85.23 ± 0.75 µM | COc1ccc(-c2cc(=O)c3c(O)c(OC)c(OC4OC(C(=O)Nc5ccccc5)C(O)C(O)C4O)cc3o2)cc1 (stereo not drawn) [Example 20] | 63.12 ± 0.46 µM
15 ± 0.85 µM | 2.95 ± 0.31 µM | COc1ccc(-c2cc(=O)c3c(O)c(OC)c(OC4OC(C(=O)Nc5cccc(OC)c5)C(O)C(O)C4O)cc3o2)cc1 (stereo not drawn) [Example 30] | 21 ± 0.49 µM
12 ± 3.52 µM | 11.8 ± 0.34 µM | Cc1cccc(NC(=O)C2OC(Oc3cc4oc(-c5ccc(OCc6ccccc6)cc5)cc(=O)c4c(O)c3OCc3ccccc3)C(O)C(O)C2O)c1 (stereo not drawn) [Example 8] | 16.1 ± 0.57 µM
11.2 ± 0.72 µM | 28.7 ± 0.54 µM | COc1ccc(-c2cc(=O)c3c(O)c(OC)c(OC4OC(C(=O)NC5CCCCC5)C(O)C(O)C4O)cc3o2)cc1 (stereo not drawn) [Example 34] | 19.1 ± 0.78 µM
11.2 ± 1.07 µM | 15.43 ± 0.11 µM | O=C(Nc1cccc(Cl)c1)C1OC(Oc2cc3oc(-c4ccc(OCc5ccccc5)cc4)cc(=O)c3c(O)c2OCc2ccccc2)C(O)C(O)C1O (stereo not drawn) [Example 7] | 13.67 ± 0.13 µM
7.23 ± 0.31 µM | 13 ± 0.28 µM | Cc1ccc(NC(=O)C2OC(Oc3cc4oc(-c5ccc(OCc6ccccc6)cc5)cc(=O)c4c(O)c3OCc3ccccc3)C(O)C(O)C2O)cc1 (stereo not drawn) [Example 10] | 5.75 ± 0.36 µM
6.23 ± 2.03 µM | 1.7 ± 0.11 µM | COc1ccccc1NC(=O)C1OC(Oc2cc3oc(-c4ccc(OCc5ccccc5)cc4)cc(=O)c3c(O)c2OCc2ccccc2)C(O)C(O)C1O (stereo not drawn) [Example 14] | 12.5 ± 0.35 µM
5.42 ± 0.53 µM | 3.37 ± 0.22 µM | COc1ccc(-c2cc(=O)c3c(O)c(OC)c(OC4OC(C(=O)Nc5cccc(Cl)c5)C(O)C(O)C4O)cc3o2)cc1 (stereo not drawn) [Example 22] | 7.02 ± 0.27 µM
5.11 ± 0.43 µM | 2.91 ± 0.69 µM | O=C(Nc1ccccc1O)C1OC(Oc2cc3oc(-c4ccc(OCc5ccccc5)cc4)cc(=O)c3c(O)c2OCc2ccccc2)C(O)C(O)C1O (stereo not drawn) [Example 11] | 6.11 ± 0.97 µM
3.69 ± 0.63 µM | 4.21 ± 0.15 µM | CCCCCCNC(=O)C1OC(Oc2cc3oc(-c4ccc(OC)cc4)cc(=O)c3c(O)c2OC)C(O)C(O)C1O (stereo not drawn) [Example 33] | 5.76 ± 0.33 µM
3.21 ± 0.75 µM | 4.86 ± 0.21 µM | COc1ccc(-c2cc(=O)c3c(O)c(OC)c(OC4OC(C(=O)Nc5ccc(Cl)cc5)C(O)C(O)C4O)cc3o2)cc1 (stereo not drawn) [Example 21] | 4.47 ± 0.35 µM
3.15 ± 0.46 µM | 5.49 ± 0.16 µM | COc1ccc(-c2cc(=O)c3c(O)c(OC)c(OC4OC(C(=O)Nc5cccc(C)c5)C(O)C(O)C4O)cc3o2)cc1 (stereo not drawn) [Example 23] | 4.62 ± 0.2 µM
